Bounds are passed on as bounds.

In assay [1] the target is ROR gamma ligand binding domain (Homo sapiens (Human), UniProt P51449). The experiment in a line: ROR gamma luciferase reporter assay (GAL4-ROR gamma LBD, HEK293 cells). It is filed as cell-based. The conditions noted are these: 48 hours treatment, read-out: RORγ luciferase Reporter assay: IC50 (nM) (in range). The method, then:
The Ligand Binding Domain (LBD) of ROR gamma was cloned into pFN26A (BIND) hRluc-neo Flexi vector (Promega) which expresses a fusion protein comprised of a DNA binding domain of the yeast GAL4 gene, a linker segment and ROR gamma ligand binding domain. For the reporter assay 0.02×10^6 HEK293 cells were seeded per well in a 96 well plate in complete media and incubated overnight in an incubator with 5% CO2 at 37° C. before transfection. Cells were then co-transfected with pFN26A hRluc-neo Flexi vector containing the LBD of ROR gamma and pGL4.35 [luc2P/9XGAL4 UAS/Hygro] Vector (Promega) in low serum media. Post transfection and recovery, cells were treated with the test compounds for 48 hours. The assay was terminated using the Bright-Glo Luciferase assay system from Promega and the Luminescence was measured using a luminescence reader. The luminescence values were used to calculate the potency of the compounds.
In general terms: Reporter assays use an easily measured gene product as a stand-in for the process of interest.

Another assay deals with RORγ LBD (Homo sapiens (Human), UniProt P51449). Description: ROR gamma radio-ligand binding assay (3H 25-Hydroxycholesterol competitive displacement, dextran charcoal method). To be noted: for inhibition at 1 µM: 1 μM compound; for inhibition at 10 µM: 10 μM compound; for IC50: in range. The method, then: Gene corresponding to the ligand binding domain of RORγ (247-497 amino acids) was sub-cloned into pGEX4T1 vector. Transformants of E. coli BL21 (DE3) containing pGEX4T1-RORγ (247-497) were grown to an OD of 0.8 at 37° C. and induced with 0.5 mM isopropyl-β-D-thiogalactopyranoside (IPTG) for 18 hours at 18° C. Cells were harvested and resuspended in 20 mM Tris-HCl (pH 8.5), 0.3 M NaCl, 10% Glycerol, 2 mM β-Me (β-Mercaptoethanol), 2 mM CHAPS, protease inhibitors, 0.6 mM PMSF and Lysozyme. Supernatant of lysate was passed through glutathione sepharose 4B affinity beads (GE health care) pre-equilibrated with 20 mM Tris-HCl (pH 8.5), 0.3 M NaCl, 10% Glycerol, 2 mM β-Me. RORγ was eluted using a gradient of reduced glutathione (3-20 mM). Fractions containing RORγ protein were pooled, concentrated and passed through Superdex 75 gel filtration (GE health care) column equilibrated with 20 mM Na-phosphate pH 8.0, 0.2 M NaCl, 10% glycerol. The peak fractions from gel filtration column were pooled and stored at −80° C. for Binding assay.
ROR gamma radioligand binding was performed using ^3H 25-Hydroxycholesterol in a competitive displacement assay using dextran charcoal method. Using 5 nM ^3H 25-Hydroxycholesterol with 300 ng RORγ LBD (in house expressed in E. coli) along with the compound were incubated in the binding buffer (50 mM HEPES, pH 7.5, 150 mM NaCl, 0.01% BSA and 5 mM MgCl2) for 30 min at room temperature. Then dextran-charcoal mixture (0.5% charcoal: 0.05% dextran) was used for separation and the supernatant was read on the Perkin Elmer Trilux Microbeta counter. Dose response curves were generated for 10 compound concentrations using GraphPad Prism software Version 5 (San Diego, Calif., USA) using non-linear regression curve fit for sigmoidal dose response (variable slope).

Sequence of RORγ LBD (P51449 268-518): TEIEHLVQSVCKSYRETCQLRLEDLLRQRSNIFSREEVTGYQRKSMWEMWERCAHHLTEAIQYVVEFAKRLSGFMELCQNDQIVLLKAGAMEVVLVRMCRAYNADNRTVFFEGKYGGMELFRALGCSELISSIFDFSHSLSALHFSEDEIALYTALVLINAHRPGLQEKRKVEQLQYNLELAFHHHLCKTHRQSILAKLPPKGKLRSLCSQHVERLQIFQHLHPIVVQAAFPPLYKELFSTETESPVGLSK
Sequence of ROR gamma ligand binding domain (P51449 269-508): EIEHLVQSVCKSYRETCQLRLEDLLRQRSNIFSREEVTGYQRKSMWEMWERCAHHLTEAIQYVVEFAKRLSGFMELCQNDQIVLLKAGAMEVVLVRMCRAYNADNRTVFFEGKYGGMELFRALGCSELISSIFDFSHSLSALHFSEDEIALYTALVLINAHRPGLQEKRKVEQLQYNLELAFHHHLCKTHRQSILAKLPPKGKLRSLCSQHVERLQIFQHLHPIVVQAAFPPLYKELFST

By IC50 is commonly meant the midpoint of a concentration-inhibition curve. As to `CCS(=O)(=O)c1ccc(CC(=O)Nc2cc(C)c3c(n2)CCC(C)(c2cc(C4CC4)c(OC)nn2)C3=O)cc1` (stereo not drawn) [Compound 76, N-(6-(5-cyclopropyl-6-methoxypyridazin-3-yl)-4,6-dimethyl-5-oxo-5,6,7,8-tetrahydroquinolin-2-yl)-2-(4-(ethylsulfonyl)phenyl)acetamide], the IC50 in assay [1] was in the range of 100 to 500 nM.

Take `CCS(=O)(=O)c1ccc(CC(=O)Nc2cc3c(cn2)C(=O)C(C)(c2cc(C)nc(C)n2)CC3)cc1` (stereo not drawn) [Compound 83, N-(7-(2,6-dimethylpyrimidin-4-yl)-7-methyl-8-oxo-5,6,7,8-tetrahydroisoquinolin-3-yl)-2-(4-(ethylsulfonyl)phenyl)acetamide]: in assay [1], the half-maximal inhibitory concentration (IC50) lay in the range of 100 to 500 nM.

`CCS(=O)(=O)c1ccc(CC(=O)Nc2ccc3c(n2)CCC(C)(c2nccn4c(C)cnc24)C3=O)cc1` (single isomer, unassigned) [compound 113, 2-(4-(ethylsulfonyl)phenyl)-N-(6-methyl-6-(3-methylimidazo[1,2-a]pyrazin-8-yl)-5-oxo-5,6,7,8-tetrahydroquinolin-2-yl)acetamide]: the 50% inhibitory concentration (IC50) in assay [1] was less than 100 nM.

`CCS(=O)(=O)c1ccc(CC(=O)Nc2cc(C)c3c(n2)CCC(C)(c2nccn4cc(C)nc24)C3=O)cc1` (stereo not drawn) [Compound 52, N-(4,6-dimethyl-6-(2-methylimidazo[1,2-a]pyrazin-8-yl)-5-oxo-5,6,7,8-tetrahydroquinolin-2-yl)-2-(4-(ethylsulfonyl)phenyl)acetamide]: in assay [1], the IC50 was less than 100 nM.

Consider `CCS(=O)(=O)c1ccc(CNC(=O)c2ccc3c(n2)CCC(C)(c2cc(C)nc(C)n2)C3=O)cc1` (single isomer, unassigned) [compound 126, 6-(2,6-dimethylpyrimidin-4-yl)-N-(4-(ethylsulfonyl)benzyl)-6-methyl-5-oxo-5,6,7,8-tetrahydroquinoline-2-carboxamide], for which the IC50 in assay [1] is greater than 500 nM.

As a reminder, the inhibition is the relative decrease from the control value, in per cent. As to `CCS(=O)(=O)c1ccc(CC(=O)Nc2cc(C)c3c(n2)CCC(C)(c2ncc(OC)cn2)C3=O)cc1` (stereo not drawn) [Compound 61, 2-(4-(ethylsulfonyl)phenyl)-N-(6-(5-methoxypyrimidin-2-yl)-4,6-dimethyl-5-oxo-5,6,7,8-tetrahydroquinolin-2-yl)acetamide], on RORγ LBD, the inhibition at 1 µM came to 90%, the inhibition at 10 µM is 74% and the IC50 is less than 150 nM.

For the compound `CCc1cc(C2(C)CCc3nc(NC(=O)Cc4ccc(S(=O)(=O)CC)cc4)ccc3C2=O)nc(CC)n1` (stereo not drawn) [compound 133, N-(6-(2,6-diethylpyrimidin-4-yl)-6-methyl-5-oxo-5,6,7,8-tetrahydroquinolin-2-yl)-2-(4-(ethylsulfonyl)phenyl)acetamide], at RORγ LBD, the inhibition at 1 µM was determined as 96%, the inhibition at 10 µM worked out at 109% and the half-maximal inhibitory concentration (IC50) is less than 150 nM.

Turning to `CCS(=O)(=O)c1ccc(CC(=O)Nc2cc(C)c3c(n2)CCC(C)(c2cc(C)nc(OC)n2)C3=O)cc1` (stereo not drawn) [Compound-135, 2-(4-(ethylsulfonyl)phenyl)-N-(6-(2-methoxy-6-methylpyrimidin-4-yl)-4,6-dimethyl-5-oxo-5,6,7,8-tetrahydroquinolin-2-yl)acetamide], on RORγ LBD, the inhibition at 1 µM was determined as 90%, the inhibition at 10 µM was determined as 104% and the IC50 was less than 150 nM.

With `CCS(=O)(=O)c1ccc(CC(=O)Nc2cc(C)c3c(n2)CCC(C)(c2c(C)ccnc2O)C3=O)cc1` (stereo not drawn) [Compound 86, 2-(4-(ethylsulfonyl)phenyl)-N-(6-(2-hydroxy-4-methylpyridin-3-yl)-4,6-dimethyl-5-oxo-5,6,7,8-tetrahydroquinolin-2-yl)acetamide], on RORγ LBD, the inhibition at 1 µM stood at 72%, the inhibition at 10 µM amounted to 100% and the concentration for half-maximal inhibition (IC50) was less than 150 nM.

Take `CCS(=O)(=O)c1ccc(CC(=O)Nc2cc(C)c3c(n2)CCC(C)(c2ncccc2O)C3=O)cc1` (stereo not drawn) [Compound 85, 2-(4-(ethylsulfonyl)phenyl)-N-(6-(3-hydroxypyridin-2-yl)-4,6-dimethyl-5-oxo-5,6,7,8-tetrahydroquinolin-2-yl)acetamide]: at RORγ LBD, the inhibition at 1 µM was 62%, the inhibition at 10 µM came out at 95% and the IC50 is greater than 300 nM.

In the case of `CCS(=O)(=O)c1ccc(CC(=O)Nc2ccc3c(n2)CCC(C)(n2nc(C)cc2C)C3=O)cc1` (stereo not drawn) [Compound 46, N-(6-(3,5-dimethyl-1H-pyrazol-1-yl)-6-methyl-5-oxo-5,6,7,8-tetrahydroquinolin-2-yl)-2-(4-(ethylsulfonyl)phenyl)acetamide], at RORγ LBD, the inhibition at 1 µM was found to be 56%, the inhibition at 10 µM is 92% and the IC50 was greater than 300 nM.

Turning to `CCc1nc(C)cc(C2(C)CCc3nc(NC(=O)Cc4ccc(S(=O)(=O)CC)cc4)ccc3C2=O)n1` (stereo not drawn) [compound 132, N-(6-(2-ethyl-6-methylpyrimidin-4-yl)-6-methyl-5-oxo-5,6,7,8-tetrahydroquinolin-2-yl)-2-(4-(ethylsulfonyl)phenyl)acetamide], at RORγ LBD, the inhibition at 1 µM came out at 99%, the inhibition at 10 µM is 103% and the IC50 was less than 150 nM.

`CCS(=O)(=O)c1ccc(CC(=O)Nc2cc(C)c3c(n2)CCC(C)(c2ccc4c(c2)OCO4)C3=O)cc1` (stereo not drawn) [Compound 42, N-(6-(benzo[d][1,3]dioxol-5-yl)-4,6-dimethyl-5-oxo-5,6,7,8-tetrahydroquinolin-2-yl)-2-(4-(ethylsulfonyl)phenyl)acetamide]: on RORγ LBD, the inhibition at 1 µM is 94%, the inhibition at 10 µM was determined as 92% and the IC50 is less than 150 nM.

On to `CCS(=O)(=O)c1ccc(CC(=O)Nc2cc(C)c3c(n2)CCC(C)(c2ccc4c(c2)ncn4C)C3=O)cc1` (stereo not drawn) [Compound 43, N-(4,6-dimethyl-6-(1-methyl-1H-benzo[d]imidazol-5-yl)-5-oxo-5,6,7,8-tetrahydroquinolin-2-yl)-2-(4-(ethylsulfonyl)phenyl)acetamide], for which, at RORγ LBD, the inhibition at 1 µM came out at 82% and the IC50 is less than 150 nM.

With `CCS(=O)(=O)c1ccc(CC(=O)Nc2cc3c(cn2)C(=O)C(C)(c2cc(C)nc(C)n2)CC3)cc1` (stereo not drawn) [compound 128, N-(7-(2,6-dimethylpyrimidin-4-yl)-7-methyl-8-oxo-5,6,7,8-tetrahydroisoquinolin-3-yl)-2-(4-(ethylsulfonyl)phenyl)acetamide], on RORγ LBD, the inhibition at 1 µM turned out to be 79%, the inhibition at 10 µM came to 110% and the IC50 was less than 150 nM.

For `CCS(=O)(=O)c1ccc(CC(=O)Nc2cc(C)c3c(n2)CCC(C)(n2cccn2)C3=O)cc1` (stereo not drawn) [Compound 47], on RORγ LBD, the inhibition at 1 µM was 82%, the inhibition at 10 µM turned out to be 98% and the half-maximal inhibitory concentration (IC50) was less than 150 nM.

As to `CCS(=O)(=O)c1ccc(CC(=O)Nc2cc(C)c3c(n2)CCC(C)(c2cccc(OC)n2)C3=O)cc1` (stereo not drawn) [Compound 19, 2-(4-(ethylsulfonyl)phenyl)-N-(6-(6-methoxypyridin-2-yl)-4,6-dimethyl-5-oxo-5,6,7,8-tetrahydroquinolin-2-yl)acetamide], on RORγ LBD, the inhibition at 1 µM came out at 98%, the inhibition at 10 µM is 98% and the IC50 lay in the range of 150 to 300 nM.

As to `CCS(=O)(=O)c1ccc(CC(=O)Nc2cc(C)c3c(n2)CCC(C)(c2cccnc2O)C3=O)cc1` (stereo not drawn) [Compound 84, 2-(4-(ethylsulfonyl)phenyl)-N-(6-(2-hydroxypyridin-3-yl)-4,6-dimethyl-5-oxo-5,6,7,8-tetrahydroquinolin-2-yl)acetamide], on RORγ LBD, the inhibition at 1 µM was found to be 82%, the inhibition at 10 µM came out at 100% and the half-maximal inhibitory concentration (IC50) is 150 to 300 nM.

Turning to `CCc1cc(C2(C)CCc3nc(NC(=O)Cc4ccc(S(=O)(=O)CC)cc4)ccc3C2=O)nc(C)n1` (stereo not drawn) [Compound-131], at RORγ LBD, the inhibition at 1 µM worked out at 51% and the inhibition at 10 µM came out at 42%.

Turning to `CCS(=O)(=O)c1ccc(CC(=O)Nc2ccc3c(n2)CC(C)(C)C(c2ncccc2O)C3=O)cc1` (stereo not drawn) [Compound 87, 2-(4-(ethylsulfonyl)phenyl)-N-(6-(3-hydroxypyridin-2-yl)-7,7-dimethyl-5-oxo-5,6,7,8-tetrahydroquinolin-2-yl)acetamide], at RORγ LBD, the inhibition at 1 µM stood at 82%, the inhibition at 10 µM was 99% and the IC50 was 150 to 300 nM.

(Values after patent US11229636B2, “Substituted tetrahydroquinolinone compounds as ROR gamma modulators” (Aurigene Discovery Technologies Limited, priority 2015, dated 2022).)
